According to PubChem BioAssay AID248 (DTP/NCI, 2004):
“And” between values parts separate entries of the source, which are not always exact repeats. Identical values can stand only once. Inconclusive results and toxic doses are left out. Rule as the data show it: active = T/C of 150% or more; inactive = T/C below 125%.

Tested on: L1210 leukemia ip in BDF1 mice, survival T/C
Experiment: NCI In Vivo Anticancer Drug Screen. Data for tumor model L1210 Leukemia (intraperitoneal) in B6D2F1 (BDF1) mice
Conditions: endpoint: mean survival time, higher = longer survival
Outline: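 Each compound was tested against a transplantable tumor grown in mice. The endpoint was survival, with treated animals benchmarked against vehicle controls as a simple ratio.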

[1] = dose: 12.5 mg/kg/injection, schedule: Q04DX002 (ip), vehicle: Klucel (hydroxypropylcellulose) (HPC)
[2] = dose: 25.0 mg/kg/injection, schedule: Q04DX002 (ip), vehicle: Klucel (hydroxypropylcellulose) (HPC)
[3] = dose: 50.0 mg/kg/injection, schedule: Q04DX002 (ip), vehicle: Klucel (hydroxypropylcellulose) (HPC)
[4] = dose: 100.0 mg/kg/injection, schedule: Q04DX002 (ip), vehicle: Klucel (hydroxypropylcellulose) (HPC)
[5] = dose: 100.0 mg/kg/injection, schedule: Q01DX001 (ip), vehicle: carboxymethylcellulose (CMC)
[6] = dose: 200.0 mg/kg/injection, schedule: Q01DX001 (ip), vehicle: carboxymethylcellulose (CMC)
[7] = dose: 400.0 mg/kg/injection, schedule: Q01DX001 (ip), vehicle: carboxymethylcellulose (CMC)
[8] = dose: 100.0 mg/kg/injection, schedule: Q04DX003 (ip), vehicle: saline with Tween-80
[9] = dose: 200.0 mg/kg/injection, schedule: Q04DX003 (ip), vehicle: saline with Tween-80
[10] = dose: 100.0 mg/kg/injection, schedule: Q01DX009 (ip), vehicle: saline
[11] = dose: 50.0 mg/kg/injection, schedule: Q01DX001 (ip), vehicle: carboxymethylcellulose (CMC)
[12] = dose: 50.0 mg/kg/injection, schedule: Q01DX009 (ip), vehicle: saline
[13] = dose: 100.0 mg/kg/injection, schedule: Q04DX003 (ip), vehicle: saline
[14] = dose: 25.0 mg/kg/injection, schedule: Q04DX003 (ip), vehicle: saline
[15] = dose: 50.0 mg/kg/injection, schedule: Q01DX001 (ip), vehicle: saline
[16] = dose: 100.0 mg/kg/injection, schedule: Q01DX001 (ip), vehicle: saline
[17] = dose: 200.0 mg/kg/injection, schedule: Q01DX001 (ip), vehicle: saline
[18] = dose: 400.0 mg/kg/injection, schedule: Q01DX001 (ip), vehicle: saline
[19] = dose: 100.0 mg/kg/injection, schedule: Q04DX003 (ip), vehicle: Klucel (hydroxypropylcellulose) (HPC)
[20] = dose: 100.0 mg/kg/injection, schedule: Q01DX009 (ip), vehicle: saline with Tween-80
[21] = dose: 200.0 mg/kg/injection, schedule: Q01DX009 (ip), vehicle: saline with Tween-80

Measured: T/C

CCCOC(=O)Nc1cccc2ccccc12
inactive: [1] 101 % of control | [2] 86 % of control | [3] 96 % of control | [4] 101 % of control

CC(=O)OCCC/C(=C\c1c2ccccc2cc2ccccc12)[N+](=O)[O-]
inactive: [5] 94 % of control | [6] 94 % of control | [7] 96 % of control

COc1ccc(/C=N/n2c3ccccc3c3ccccc32)cc1OCCCN(C)C
inactive: dose: 3.12 mg/kg/injection, schedule: Q01DX009 (ip), vehicle: saline 98 % of control | dose: 6.25 mg/kg/injection, schedule: Q01DX009 (ip), vehicle: saline 102 % of control | dose: 25.0 mg/kg/injection, schedule: Q04DX003 (ip), vehicle: alcohol 93 % of control | dose: 50.0 mg/kg/injection, schedule: Q04DX003 (ip), vehicle: alcohol 93 % of control

Cc1cnc(Br)c(Br)c1
inactive: [8] 102 % of control | [9] 100 % of control | dose: 400.0 mg/kg/injection, schedule: Q04DX003 (ip), vehicle: saline with Tween-80 102 % of control

COc1cc(OC)c2cc1Cc1cc(c(OC)cc1OC)Cc1cc(c(OC)cc1OC)Cc1cc(c(OC)cc1OC)C2
inactive: [10] 94 % of control | dose: 200.0 mg/kg/injection, schedule: Q01DX009 (ip), vehicle: saline 86 % of control | dose: 400.0 mg/kg/injection, schedule: Q01DX009 (ip), vehicle: saline 86 % of control

O=C(Nc1ccccc1F)N1CCCCC1
inactive: dose: 100.0 mg/kg/injection, schedule: Q01DX009 (ip), vehicle: gum acacia 97 % of control | dose: 200.0 mg/kg/injection, schedule: Q01DX009 (ip), vehicle: gum acacia 97 % of control | dose: 400.0 mg/kg/injection, schedule: Q01DX009 (ip), vehicle: gum acacia 100 % of control

[C-]1=CC2C=CC1C1[C-]=CC21.[Cl][Pd][Cl] (stereo not drawn)
inactive: dose: 3.13 mg/kg/injection, schedule: Q01DX009 (ip), vehicle: saline with Tween-80 103 % of control | dose: 6.25 mg/kg/injection, schedule: Q01DX009 (ip), vehicle: saline with Tween-80 98 % of control | dose: 12.5 mg/kg/injection, schedule: Q01DX009 (ip), vehicle: saline with Tween-80 100 % of control

O=C1c2cccnc2C(=O)c2c(O)ccc(O)c21
inactive: [11] 100 % of control | [5] 108 % of control | [6] 100 % of control | [7] 108 % of control

c1cc2c(c3c1CCCC3)CCCC2
inactive: [11] 92 % of control | [12] 101 % of control | [5] 97 % of control | [10] 94 % of control | [13] 91 % of control | [6] 91 % of control | dose: 200.0 mg/kg/injection, schedule: Q04DX003 (ip), vehicle: saline 101 % of control | [7] 94 % of control

CC12CCC(C1)C(C)(C)C2NCCCN1C(=O)c2ccc3c4c(ccc(c24)C1=O)C(=O)N(CCCNC1C2(C)CCC(C2)C1(C)C)C3=O (stereo not drawn)
inactive: dose: 25.0 mg/kg/injection, schedule: Q01DX009 (ip), vehicle: saline 102 % of control | [14] 98 % of control | [12] 117 % of control | dose: 50.0 mg/kg/injection, schedule: Q04DX003 (ip), vehicle: saline 94 % of control | [13] 96 % of control and 90 % of control

Cc1nc(N)n(C)n1
inactive: dose: 100.0 mg/kg/injection, schedule: Q04DX002 (ip), vehicle: saline 104 % of control | dose: 200.0 mg/kg/injection, schedule: Q04DX002 (ip), vehicle: saline 101 % of control | dose: 400.0 mg/kg/injection, schedule: Q04DX002 (ip), vehicle: saline 101 % of control

O=[N+]([O-])c1ccc2nncn2c1
inactive: [15] 91 % of control | [16] 97 % of control | [17] 103 % of control | [18] 101 % of control

Nc1nc(N)nc(-c2cccc(Cl)c2)n1
inactive: dose: 25.0 mg/kg/injection, schedule: Q04DX003 (ip), vehicle: Klucel (hydroxypropylcellulose) (HPC) 107 % of control | dose: 50.0 mg/kg/injection, schedule: Q04DX003 (ip), vehicle: Klucel (hydroxypropylcellulose) (HPC) 101 % of control | [4] 111 % of control | [19] 102 % of control

O=C(COc1ccccc1)c1ccccc1
inactive: [1] 93 % of control | [2] 104 % of control | [3] 96 % of control | dose: 200.0 mg/kg/injection, schedule: Q04DX002 (ip), vehicle: Klucel (hydroxypropylcellulose) (HPC) 95 % of control

C=CCOc1ccccn1
inactive: dose: 50.0 mg/kg/injection, schedule: Q01DX009 (ip), vehicle: saline with Tween-80 98 % of control | dose: 50.0 mg/kg/injection, schedule: Q04DX003 (ip), vehicle: saline with Tween-80 105 % of control | [20] 104 % of control | [8] 98 % of control | [21] 98 % of control | [9] 102 % of control

O=C(Nc1ccc(Cl)c(Cl)c1)O/N=C\c1c(Cl)ccc([N+](=O)[O-])c1Cl
inactive: [16] 102 % of control | [17] 107 % of control | [18] 102 % of control

CC1(c2ccc(Cl)cc2)NC(=O)NC1=O (stereo not drawn)
inactive: dose: 50.0 mg/kg/injection, schedule: Q01DX009 (ip), vehicle: Klucel (hydroxypropylcellulose) (HPC) 97 % of control | dose: 100.0 mg/kg/injection, schedule: Q01DX009 (ip), vehicle: Klucel (hydroxypropylcellulose) (HPC) 101 % of control | dose: 200.0 mg/kg/injection, schedule: Q01DX009 (ip), vehicle: Klucel (hydroxypropylcellulose) (HPC) 94 % of control

COc1ccc(-n2c(O)c(N=Nc3ccccc3C)c(=O)n(-c3ccccc3)c2=S)cc1
inactive: dose: 37.5 mg/kg/injection, schedule: Q01DX001 (ip), vehicle: Klucel (hydroxypropylcellulose) (HPC) 103 % of control | dose: 75.0 mg/kg/injection, schedule: Q01DX001 (ip), vehicle: Klucel (hydroxypropylcellulose) (HPC) 97 % of control | dose: 150.0 mg/kg/injection, schedule: Q01DX001 (ip), vehicle: Klucel (hydroxypropylcellulose) (HPC) 94 % of control

N=C(N)c1ccc(-c2cc(-c3ccc(C(=N)N)cc3)on2)cc1
inactive: dose: 6.25 mg/kg/injection, schedule: Q04DX003 (ip), vehicle: saline 100 % of control | dose: 12.5 mg/kg/injection, schedule: Q04DX003 (ip), vehicle: saline 103 % of control | [14] 108 % of control

CCCCCCCCCCCCCCCCCC1=NC(C)(CO)CO1 (stereo not drawn)
inactive: [19] 102 % of control | dose: 200.0 mg/kg/injection, schedule: Q04DX003 (ip), vehicle: Klucel (hydroxypropylcellulose) (HPC) 96 % of control | dose: 400.0 mg/kg/injection, schedule: Q04DX003 (ip), vehicle: Klucel (hydroxypropylcellulose) (HPC) 107 % of control

COC(=O)C12C(=CCP1(C)=O)C(c1ccccc1)=NN2c1ccccc1 (stereo not drawn)
inactive: dose: 12.5 mg/kg/injection, schedule: Q04DX002 (ip), vehicle: saline with Tween-80 92 % of control | dose: 25.0 mg/kg/injection, schedule: Q04DX002 (ip), vehicle: saline with Tween-80 95 % of control

CC(C)(C)CC(C)(C)NS(=O)(=O)NC(C)(C)CC(C)(C)C
inactive: [20] 103 % of control | [21] 93 % of control | dose: 400.0 mg/kg/injection, schedule: Q01DX009 (ip), vehicle: saline with Tween-80 92 % of control

Cc1ccc(S(=O)(=O)C(CC(=O)O)c2ccccc2)cc1 (stereo not drawn)
inactive: [5] 88 % of control | [6] 93 % of control | [7] 98 % of control

CC1([N+](=O)[O-])COP(=O)(Nc2ccc(Br)cc2)OC1 (stereo not drawn)
inactive: [15] 93 % of control | [16] 98 % of control | [17] 104 % of control | [18] 122 % of control
